# Measured values published in ChEMBL document CHEMBL4813957, “Antitubercular properties of thiazolidin-4-ones - A review” (Eur J Med Chem, 2021).
# Tested on: Mycobacterium tuberculosis
# Experiment: Antimycobacterial activity against Mycobacterium tuberculosis H37Rv by filter paper disc diffusion method
# Format: functional
# Conditions: not given
row,Structure (SMILES),MIC [µg/mL]
1,O=C1CSC(c2ccc(Cl)cc2)N1C(=O)NCCCn1ncc2ccc([N+](=O)[O-])cc21 (stereo not drawn),4.75
2,O=C1CSC(c2cccc(Br)c2)N1C(=O)NCCCn1ncc2ccc([N+](=O)[O-])cc21 (stereo not drawn),4.5
3,O=C(NCCCn1ncc2ccc([N+](=O)[O-])cc21)N1C(=O)/C(=C/c2ccc(Cl)cc2)SC1c1ccc(Cl)cc1 (stereo not drawn),3.25
4,O=C1CSC(c2ccccc2[N+](=O)[O-])N1C(=O)NCCCn1ncc2ccc([N+](=O)[O-])cc21 (stereo not drawn),3.75
5,O=C(NCCCn1ncc2ccc([N+](=O)[O-])cc21)N1C(=O)/C(=C/c2ccccc2[N+](=O)[O-])SC1c1ccccc1[N+](=O)[O-] (stereo not drawn),2.25
6,O=C(NCCCn1ncc2ccc([N+](=O)[O-])cc21)N1C(=O)/C(=C/c2ccccc2)SC1c1ccccc1 (stereo not drawn),6.25
7,O=C1CSC(c2ccccc2)N1C(=O)NCCCn1ncc2ccc([N+](=O)[O-])cc21 (stereo not drawn),7.5
8,O=C(NCCCn1ncc2ccc([N+](=O)[O-])cc21)N1C(=O)/C(=C/c2cccc([N+](=O)[O-])c2)SC1c1cccc([N+](=O)[O-])c1 (stereo not drawn),1.75
9,O=C(NCCCn1ncc2ccc([N+](=O)[O-])cc21)N1C(=O)/C(=C/c2ccccc2Cl)SC1c1ccccc1Cl (stereo not drawn),2.25
10,O=C1CSC(c2ccc([N+](=O)[O-])cc2)N1C(=O)NCCCn1ncc2ccc([N+](=O)[O-])cc21 (stereo not drawn),4.25
11,O=C1CSC(c2ccccc2Cl)N1C(=O)NCCCn1ncc2ccc([N+](=O)[O-])cc21 (stereo not drawn),4.25
12,O=C1CSC(c2cccc([N+](=O)[O-])c2)N1C(=O)NCCCn1ncc2ccc([N+](=O)[O-])cc21 (stereo not drawn),4.25
13,O=C(NCCCn1ncc2ccc([N+](=O)[O-])cc21)N1C(=O)/C(=C/c2cccc(Cl)c2)SC1c1cccc(Cl)c1 (stereo not drawn),1.5
14,O=C1CSC(c2cccc(Cl)c2)N1C(=O)NCCCn1ncc2ccc([N+](=O)[O-])cc21 (stereo not drawn),4.5
15,O=C1CSC(c2ccccc2Br)N1C(=O)NCCCn1ncc2ccc([N+](=O)[O-])cc21 (stereo not drawn),4.75
16,O=C(NCCCn1ncc2ccc([N+](=O)[O-])cc21)N1C(=O)/C(=C/c2ccc([N+](=O)[O-])cc2)SC1c1ccc([N+](=O)[O-])cc1 (stereo not drawn),1.5
17,O=C(NCCCn1ncc2ccc([N+](=O)[O-])cc21)N1C(=O)/C(=C/c2ccc(Br)cc2)SC1c1ccc(Br)cc1 (stereo not drawn),2.5
18,O=C(NCCCn1ncc2ccc([N+](=O)[O-])cc21)N1C(=O)/C(=C/c2cccc(Br)c2)SC1c1cccc(Br)c1 (stereo not drawn),1.25
19,O=C(NCCCn1ncc2ccc([N+](=O)[O-])cc21)N1C(=O)/C(=C/c2ccccc2Br)SC1c1ccccc1Br (stereo not drawn),4.25
20,O=C1CSC(c2ccc(Br)cc2)N1C(=O)NCCCn1ncc2ccc([N+](=O)[O-])cc21 (stereo not drawn),5.25

# Tested on: Mycobacterium tuberculosis
# Experiment: Antimycobacterial activity against Mycobacterium tuberculosis H37Rv ATCC […] by microplate alamar blue assay
# Format: functional
# Conditions: 168 h, time 7 day
row,Structure (SMILES),MIC [µg/mL]
1,O=C1CSC(c2ccccc2)N1C1=NN2C(=CSC2c2ccccc2)S1 (stereo not drawn),6.25
2,CN(C)c1ccc(C2SC=C3SC(N4C(=O)CSC4c4ccccc4)=NN32)cc1 (stereo not drawn),6.25
3,Cc1ccc(C2SC=C3SC(N4C(=O)CSC4c4ccc(C)cc4)=NN32)cc1 (stereo not drawn),1.6
4,COc1ccc(C2SCC(=O)N2C2=NN3C(=CSC3c3ccc(N(C)C)cc3)S2)cc1 (stereo not drawn),3.12
5,COc1ccccc1C1SCC(=O)N1C1=NN2C(=CSC2c2ccc(N(C)C)cc2)S1 (stereo not drawn),3.12
6,Cc1ccc(C2SC=C3SC(N4C(=O)CSC4c4ccccc4C)=NN32)cc1 (stereo not drawn),3.12
7,O=C1CSC(c2ccc(O)cc2)N1C1=NN2C(=CSC2c2ccc(O)cc2)S1 (stereo not drawn),1.6
8,Cc1ccc(C2SC=C3SC(N4C(=O)CSC4c4ccccc4)=NN32)cc1 (stereo not drawn),625
9,O=C1CSC(c2ccccc2)N1C1=NN2C(=CSC2c2ccc(O)cc2)S1 (stereo not drawn),6.25
10,O=C1CSC(c2ccccc2Cl)N1C1=NN2C(=CSC2c2ccccc2)S1 (stereo not drawn),3.12
11,O=C1CSC(c2ccc(Cl)cc2)N1C1=NN2C(=CSC2c2ccccc2)S1 (stereo not drawn),3.12
12,O=C1CSC(c2ccccc2O)N1C1=NN2C(=CSC2c2ccc(O)cc2)S1 (stereo not drawn),3.12
13,NC(=O)c1cnccn1 [PYRAZINAMIDE],3.12
14,CN[C@@H]1[C@H](O[C@H]2[C@H](O[C@H]3[C@H](O)[C@@H](O)[C@H](N=C(N)N)[C@@H](O)[C@@H]3N=C(N)N)O[C@@H](C)[C@]2(O)C=O)O[C@@H](CO)[C@H](O)[C@H]1O [STREPTOMYCIN],6.25

# Tested on: Mycobacterium tuberculosis
# Experiment: Antimycobacterial activity against Mycobacterium tuberculosis H37Rv incubated for 5 days by microplate alamar blue assay
# Format: functional
# Conditions: 120 h, time 5 day
row,Structure (SMILES),MIC
1,O=C1NC(=S)S/C1=C\c1cccc([N+](=O)[O-])c1,0.05 µg/mL
2,COc1ccc(/C=C2\SC(=S)NC2=O)cc1,0.1 µg/mL
3,O=C1CSC(c2c(-c3ccccc3)[nH]c3ccccc23)N1c1nc(-c2ccccc2)cs1 (stereo not drawn),50 µg/mL
4,O=C1NC(=S)S/C1=C\c1ccc[nH]1,0.2 µg/mL
5,O=C1CSC(c2c(-c3ccccc3)[nH]c3ccccc23)N1c1nc(-c2ccc(Cl)cc2)cs1 (stereo not drawn),50 µg/mL
6,Nc1ccc([N+](=O)[O-])cc1N1C(=O)/C(=C/c2ccccc2)SC1=S,12.5 µg/mL
7,COc1ccc(/C=C2\SC(=S)N(c3ccc(N)cc3)C2=O)cc1,12.5 µg/mL
8,O=C(NN1C(=O)CSC1c1c(-c2ccccc2)[nH]c2ccccc12)c1[nH]c2ccc(Cl)cc2c1-c1ccccc1 (stereo not drawn),12.5 µg/mL
9,Cc1ccc(NN2C(=O)CSC2c2ccc(-n3ccnc3)cc2)cc1 (stereo not drawn),14.3 µM
10,CN(C)c1ccc(/C=C2\SC(=S)N(c3ccc(C=O)cc3)C2=O)cc1,12.5 µg/mL
11,COc1ccc(/C=C2\SC(=S)N(c3cc([N+](=O)[O-])ccc3N)C2=O)cc1,12.5 µg/mL
12,O=C1CSC(c2ccc(-n3cncn3)cc2)N1Nc1ccccc1 (stereo not drawn),14.3 µM
13,O=C1CSC(c2ccc(-n3ccnc3)cc2)N1Nc1ccccc1 (stereo not drawn),14.3 µM
14,NC(=O)c1cnccn1 [PYRAZINAMIDE],3.12 µg/mL
15,CN[C@@H]1[C@H](O[C@H]2[C@H](O[C@H]3[C@H](O)[C@@H](O)[C@H](N=C(N)N)[C@@H](O)[C@@H]3N=C(N)N)O[C@@H](C)[C@]2(O)C=O)O[C@@H](CO)[C@H](O)[C@H]1O [STREPTOMYCIN],6.25 µg/mL

# Tested on: Mycobacterium tuberculosis
# Experiment: Antimycobacterial activity against Mycobacterium tuberculosis H37Rv ATCC27294 measured after 28 days by two-fold serial dilution method
# Format: functional
# Conditions: H37Rv ATCC 27294, 672 h, time 28 day
row,Structure (SMILES),MIC [µM]
1,N=C1S/C(=C\c2ccc(OCc3ccccc3)cc2)C(=O)N1c1ncc([N+](=O)[O-])s1,6.4
2,N=C1S/C(=C\c2cc([N+](=O)[O-])co2)C(=O)N1c1cccc(C(F)(F)F)c1,4.07
3,N=C1S/C(=C\c2ccccc2F)C(=O)N1c1ncc([N+](=O)[O-])s1,3.9
4,COc1cc(/C=C2\SC(=N)N(c3ncc([N+](=O)[O-])s3)C2=O)cc(OC)c1OC,3.31
5,N=C1S/C(=C\c2ccc(OCc3ccccc3)cc2)C(=O)N1c1cccc(C(F)(F)F)c1,6.88
6,N=C1S/C(=C\c2cc([N+](=O)[O-])co2)C(=O)N1c1ncc([N+](=O)[O-])s1,7.49
7,COc1cc(/C=C2\SC(=N)N(c3cccc(C(F)(F)F)c3)C2=O)cc(OC)c1OC,7.11
8,COc1cc(/C=C2\SC(=N)N(c3nc4ccc([N+](=O)[O-])cc4s3)C2=O)cc(OC)c1OC,7.4
9,COc1ccc(/C=C2\SC(=N)N(c3cccc(C(F)(F)F)c3)C2=O)cc1,4.12
10,N=C1S/C(=C\c2cc([N+](=O)[O-])co2)C(=O)N1c1nc2ccc([N+](=O)[O-])cc2s1,6.81
11,N=C1S/C(=C\c2ccccc2F)C(=O)N1c1nc2ccc([N+](=O)[O-])cc2s1,4.26
12,COc1ccc(/C=C2\SC(=N)N(c3ncc([N+](=O)[O-])s3)C2=O)cc1,3.78
13,N=C1S/C(=C\c2cc([N+](=O)[O-])cs2)C(=O)N1c1nc2ccc([N+](=O)[O-])cc2s1,6.52
14,N=C1S/C(=C\c2cc([N+](=O)[O-])cs2)C(=O)N1c1ncc([N+](=O)[O-])s1,7.21
15,N=C1S/C(=C\c2ccccc2F)C(=O)N1c1cccc(C(F)(F)F)c1,4.25
16,CC[C@@H](CO)NCCN[C@@H](CC)CO [ETHAMBUTOL],7.64

# Tested on: Mycobacterium tuberculosis
# Experiment: Antimycobacterial activity against Mycobacterium tuberculosis H37Rv by microplate alamar blue assay
# Format: functional
# Conditions: not given
row,Structure (SMILES),MIC [µg/mL]
1,O=C1/C(=C/c2ccccc2)SC(=S)N1Cc1nc2ccccc2[nH]1,6.25
2,O=C1CSC(c2ccc3c(c2)OCO3)N1c1nc(N2CCOCC2)n[nH]1 (stereo not drawn),≤ 1
3,Cc1ccc(/C=C2\SC(=S)N(Cc3nc4ccccc4[nH]3)C2=O)cc1,6.25
4,Cc1ccc(C2SC(C)C(=O)N2c2nc(N3CCN(C)CC3)n[nH]2)cc1 (stereo not drawn),≤ 1
5,COc1ccc2oc(=O)cc(C3SCC(=O)N3c3ccc(Cl)cc3)c2c1 (stereo not drawn),25
6,CN1CCN(c2n[nH]c(N3C(=O)CSC3c3ccc4c(c3)OCO4)n2)CC1 (stereo not drawn),≤ 1
7,O=C1N/C(=N\c2ccc(S(=O)(=O)Nc3cc(Cl)c(Cl)cc3Cl)cc2)S/C1=C\c1ccc(O)cc1,3.12
8,COc1ccc(N2C(=O)CSC2c2cc(=O)oc3ccc(C)cc23)cc1 (stereo not drawn),25
9,O=C1/C(=C/c2ccc(F)cc2)SC(=S)N1Cc1nc2ccccc2[nH]1,6.25
10,O=C1/C(=C/c2ccc(O)cc2)SC(=S)N1Cc1nc2ccccc2[nH]1,6.25
11,O=C(O)c1ccc(N2C(=O)CSC2c2ccc(F)cc2)cc1O (stereo not drawn),6.25
12,Cc1ccc2oc(=O)cc(C3SCC(=O)N3c3ccccc3)c2c1 (stereo not drawn),25
13,CN[C@@H]1[C@H](O[C@H]2[C@H](O[C@H]3[C@H](O)[C@@H](O)[C@H](N=C(N)N)[C@@H](O)[C@@H]3N=C(N)N)O[C@@H](C)[C@]2(O)C=O)O[C@@H](CO)[C@H](O)[C@H]1O [STREPTOMYCIN],6.25

# Tested on: Mycobacterium tuberculosis
# Experiment: Antimycobacterial activity against Mycobacterium tuberculosis H37Ra ATCC 25177 incubated for 7 days by microplate alamar blue assay
# Format: functional
# Conditions: H37Ra ATCC 25177, 168 h, time 7 day
row,Structure (SMILES),MIC [µg/mL]
1,COc1cc(/C=N/NC(=S)Nc2ccc(Cl)cc2)ccc1OC(=O)CC1SC(=O)NC1=O (stereo not drawn),2
2,O=C(CC1SC(=O)NC1=O)Oc1ccc(/C=N/NC(=S)Nc2ccc(Cl)cc2)cc1 (stereo not drawn),2
3,COc1cc(/C=N/NC(=S)Nc2ccccc2)ccc1OC(=O)/C=C1\SC(=O)NC1=O,2
4,COc1cc(/C=N/NC(=S)Nc2ccccc2)ccc1OC(=O)CC1SC(=O)NC1=O (stereo not drawn),2
5,COc1cc(/C=N/NC(=S)Nc2cccc(Cl)c2)ccc1OC(=O)CC1SC(=O)NC1=O (stereo not drawn),2
